CC50 and Emax data for 20 molecules are collected here from patent US9663528B2, “Substituted 1,2,3,4,6,8,12,12a-octahydro-1,4-methanodipyrido[1,2-a:1',2'-d]pyrazines and methods for treating viral infections” (priority 2012, dated 2017).

Series [1] is described as follows: Cytotoxicity (CC50) in MT-4 cells, mock-infected, CellTiter-Glo. The note with it: human. As for the experimental part: For the antiviral assay utilizing MT4 cells, 0.4 μL of […] test concentration of 3-fold serially diluted compound in DMSO was added to 40 μL of cell growth medium (RPMI 1640, 10% FBS, 1% penicilline/Streptomycine, 1% L-Glutamine, 1% HEPES) in each well of 384-well assay plates (10 concentrations) in quidruplicate.
1 mL aliquots of 2×10^6 MT4 cells are pre-infected for 1 and 3 hours respectively at 37° C. with 25 μL (MT4) or of either cell growth medium (mock-infected) or a fresh 1:250 dilution of an HIV-IIIb concentrated ABI stock (0.004 m.o.i. for MT4 cells). Infected and uninfected cells are diluted in cell growth medium and 35 μL of 2000 (for MT4) cells is added to each well of the assay plates.
Assay plates were then incubated in a 37° C. incubator. After 5 days of incubation, 25 μL of 2× concentrated CellTiter-Glo™ Reagent (catalog #G7573, Promega Biosciences, Inc., Madison, Wis.) was added to each well of the assay plate. Cell lysis was carried out by incubating at room temperature for 2-3 minutes, and then chemiluminescence was read using the Envision reader (PerkinElmer).

A further series concerns the target PXR (Homo sapiens (Human), UniProt O75469). Description: Human PXR activation assay (luciferase reporter gene assay, DPX2 cells). In kind it is cell-based. The note with it: human. As for the experimental part: A stably transformed tumor cell line (DPX2) was plated on 96-well microtiter plates. DPX2 cells harbor the human PXR gene (NR112) and a luciferase reporter gene linked to two promoters identified in the human CYP3A4 gene, namely XREM and PXRE. […] The number of viable cells was determined and the reporter gene activity was assessed. Positive control: […]

Setting [2] is: 15 μM, relative to maximum fold induction by 10 or 20 μM rifampicin, DPX2 cells, 24 hours, read-out: % Emax at 15 μM.

Read-outs that look alike come from different tables or passages of the source.

Sequence of PXR (O75469 whole entry): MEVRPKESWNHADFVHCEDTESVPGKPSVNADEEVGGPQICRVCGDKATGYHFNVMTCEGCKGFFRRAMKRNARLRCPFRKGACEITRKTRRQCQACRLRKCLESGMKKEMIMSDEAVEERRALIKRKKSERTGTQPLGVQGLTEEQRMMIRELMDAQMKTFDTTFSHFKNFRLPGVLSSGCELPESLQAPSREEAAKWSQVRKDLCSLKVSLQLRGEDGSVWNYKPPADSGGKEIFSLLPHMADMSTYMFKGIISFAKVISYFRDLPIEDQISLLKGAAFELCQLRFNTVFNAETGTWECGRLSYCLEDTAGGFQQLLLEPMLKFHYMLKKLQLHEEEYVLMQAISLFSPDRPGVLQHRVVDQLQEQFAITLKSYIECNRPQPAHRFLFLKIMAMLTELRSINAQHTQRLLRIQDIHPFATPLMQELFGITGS

A word on the Emax: it is the size of the effect at its maximum, as opposed to the concentration needed. In turn, `O=C(NCc1c(F)cc(F)cc1F)c1cn2c(c(O)c1=O)C(=O)N1[C@H]3C[C@H](C3)[C@@H]1C2` (single isomer, unassigned) [Compound 97] returned a CC50 at 5 days in series [1] (MT-4 cells, mock-infected, CC50 nM in MT-4, MT-4 cells, 5 days incubation) of 17300 nM. The Emax at 24 h, 15 µM on PXR (setting [2]) turned out to be 9%.
Turning to `O=C(NCc1ccc(F)cc1F)c1cn2c(c(O)c1=O)C(=O)N1C(C2)[C@H]2CC[C@@H]1C2` (stereo in doubt) [Compound 38, (1S,4R,12aR)-N-(2,4-difluorobenzyl)-7-hydroxy-6,8-dioxo-1,2,3,4,6,8,12,12a-octahydro-1,4-methanodipyrido[1,2-a:1′,2′-d]pyrazine-9-carboxamide], the CC50 at 5 days in series [1] (CC50 nM in MT-4) is 10200 nM. At PXR (setting [2]), the Emax at 24 h, 15 µM turned out to be 7%.
In series [1] (CC50 nM in MT-4), `O=C(NCc1c(F)cc(F)cc1F)c1cn2c(c(O)c1=O)C(=O)N1[C@H]3CC(F)C(C3)[C@@H]1C2` (stereo in doubt) [Compound 56, (1R,2S,4R,12aR)-2-fluoro-7-hydroxy-6,8-dioxo-N-(2,4,6-trifluorobenzyl)-1,2,3,4,6,8,12,12a-octahydro-1,4-methanodipyrido[1,2-a:1′,2′-d]pyrazine-9-carboxamide] yielded a CC50 at 5 days of 17200 nM. Further, at PXR, the Emax at 24 h, 15 µM came to 3%.
For `O=C(NCc1ccc(F)cc1F)c1cn2c(c(O)c1=O)C(=O)N1C(C2)[N@@]2CC[C@@H]1C2` (stereo partly drawn) [Compound 4, (1S,4R)-N-(2,4-difluorobenzyl)-7-hydroxy-6,8-dioxo-3,4,6,8,12,12a-hexahydro-2H-1,4-methanopyrido[1′,2′:4,5]pyrazino[1,2-a]pyrimidine-9-carboxamide], in that order: 45800 nM and 3%.
On to `O=C(NCc1ccc(F)cc1F)c1cn2c(c(O)c1=O)C(=O)N1C(C2)[N@]2CC[C@H]1C2` (stereo partly drawn) [Compound 6, (1R,4S)-N-(2,4-difluorobenzyl)-7-hydroxy-6,8-dioxo-3,4,6,8,12,12a-hexahydro-2H-1,4-methanopyrido[1′,2′:4,5]pyrazino[1,2-a]pyrimidine-9-carboxamide], for which the Emax at 24 h, 15 µM at PXR was 0%.
In turn, `C[C@@H](NC(=O)c1cn2c(c(O)c1=O)C(=O)N1[C@H]3CC[C@H](C3)O[C@@H]1C2)c1ccc(F)cc1` [Compound 10, (2R,5S,13aR)-N—((R)-1-(4-fluorophenyl)ethyl)-8-hydroxy-7,9-dioxo-2,3,4,5,7,9,13,13a-octahydro-2,5-methanopyrido[1′,2′:4,5]pyrazino[2,1-b][1,3]oxazepine-10-carboxamide] had a CC50 at 5 days in series [1] (CC50 nM in MT-4) of 3670 nM. For the same molecule, the Emax at 24 h, 15 µM at PXR stood at 19%.
`O=C(NCc1ccc(F)cc1)c1cn2c(c(O)c1=O)C(=O)N1[C@@H]3CC[C@@H](C3)O[C@H]1C2` [Compound 15, (2S,5R,13aS)-N-(4-fluorobenzyl)-8-hydroxy-7,9-dioxo-2,3,4,5,7,9,13,13a-octahydro-2,5-methanopyrido[1′,2′:4,5]pyrazino[2,1-b][1,3]oxazepine-10-carboxamide] returned a CC50 at 5 days in series [1] (CC50 nM in MT-4) of 16300 nM. The molecule also gave an Emax at 24 h, 15 µM on PXR of 20%.
In series [1] (CC50 nM in MT-4), `O=C(NCc1cccc(F)c1F)c1cn2c(c(O)c1=O)C(=O)N1[C@@H]3CC[C@@H](C3)O[C@H]1C2` [Compound 16, (2S,5R,13aS)-N-(2,3-difluorobenzyl)-8-hydroxy-7,9-dioxo-2,3,4,5,7,9,13,13a-octahydro-2,5-methanopyrido[1′,2′:4,5]pyrazino[2,1-b][1,3]oxazepine-10-carboxamide] came in with a CC50 at 5 days of 13600 nM. This molecule showed an Emax at 24 h, 15 µM on PXR of 17%.
Taken in the same sequence, the figures for `O=C(NCc1ccc(Cl)cc1F)c1cn2c(c(O)c1=O)C(=O)N1[C@@H]3CC[C@@H](C3)O[C@H]1C2` [Compound 17, (2S,5R,13aS)-N-(4-chloro-2-fluorobenzyl)-8-hydroxy-7,9-dioxo-2,3,4,5,7,9,13,13a-octahydro-2,5-methanopyrido[1′,2′:4,5]pyrazino[2,1-b][1,3]oxazepine-10-carboxamide] were 6610 nM and 7%.
Taken in the same sequence, the figures for `O=C(NCc1ccc(F)c(F)c1)c1cn2c(c(O)c1=O)C(=O)N1[C@@H]3CC[C@@H](C3)O[C@H]1C2` [Compound 18, (2S,5R,13aS)-N-(3,4-difluorobenzyl)-8-hydroxy-7,9-dioxo-2,3,4,5,7,9,13,13a-octahydro-2,5-methanopyrido[1′,2′:4,5]pyrazino[2,1-b][1,3]oxazepine-10-carboxamide] were 10300 nM and 4%.
For `O=C(NCc1ccc(F)cc1F)c1cn2c(c(O)c1=O)C(=O)N1C(C2)[N@]2CCC[C@H]1C2` (stereo partly drawn) [Compound 19, (1R,5S)-N-(2,4-difluorobenzyl)-8-hydroxy-7,9-dioxo-2,3,4,5,7,9, 13,13a-octahydro-1,5-methanopyrido[1′,2′:4,5]pyrazino[1,2-a][1,3]diazepine-10-carboxamide], in that order: 38700 nM and 2%.
Molecule `O=C(NCc1ccc(F)cc1F)c1cn2c(c(O)c1=O)C(=O)N1C(C2)[N@@]2CCC[C@@H]1C2` (stereo partly drawn) [Compound 20, (1S,5R)-N-(2,4-difluorobenzyl)-8-hydroxy-7,9-dioxo-2,3,4,5,7,9,13,13a-octahydro-1,5-methanopyrido[1′,2′:4,5]pyrazino[1,2-a][1,3]diazepine-10-carboxamide] returned a CC50 at 5 days in series [1] (CC50 nM in MT-4) of 28000 nM. This molecule also gave an Emax at 24 h, 15 µM on PXR of 2%.
Taken in the same sequence, the figures for `O=C(NCc1ccccc1F)c1cn2c(c(O)c1=O)C(=O)N1[C@@H]3CC[C@@H](C3)O[C@H]1C2` [Compound 23, (2S,5R,13aS)-N-(2-fluorobenzyl)-8-hydroxy-7,9-dioxo-2,3,4,5,7,9,13,13a-octahydro-2,5-methanopyrido[1′,2′:4,5]pyrazino[2,1-b][1,3]oxazepine-10-carboxamide] were 13400 nM and 45%.
For `O=C(NC1(c2ccc(F)cc2F)CC1)c1cn2c(c(O)c1=O)C(=O)N1C(C2)O[C@H]2CCC[C@@H]1C2` (stereo partly drawn) [Compound 28, (2S,6R)-N-(1-(2,4-difluorophenyl)cyclopropyl)-9-hydroxy-8,10-dioxo-3,4,5,6,8,10,14,14a-octahydro-2H-2,6-methanopyrido[1′,2′:4,5]pyrazino[2,1-b][1,3]oxazocine-11-carboxamide], in that order: 18700 nM and 6%.
For the molecule `O=C(NC1(c2ccc(F)cc2F)CC1)c1cn2c(c(O)c1=O)C(=O)N1C(C2)O[C@@H]2CCC[C@H]1C2` (stereo partly drawn) [Compound 29, (2R,6S)-N-(1-(2,4-difluorophenyl)cyclopropyl)-9-hydroxy-8,10-dioxo-3,4,5,6,8,10,14,14a-octahydro-2H-2,6-methanopyrido[1′,2′:4,5]pyrazino[2,1-b][1,3]oxazocine-11-carboxamide], in series [1] (CC50 nM in MT-4), the CC50 at 5 days was found to be 9450 nM. On PXR, this molecule had an Emax at 24 h, 15 µM of 3%.
For `O=C(NC1(c2ccc(F)cc2F)CCC1)c1cn2c(c(O)c1=O)C(=O)N1C(C2)O[C@H]2CC[C@@H]1C2` (stereo partly drawn) [Compound 32, (2S,5R)-N-(1-(2,4-difluorophenyl)cyclobutyl)-8-hydroxy-7,9-dioxo-2,3,4,5,7,9,13,13a-octahydro-2,5-methanopyrido[1′,2′:4,5]pyrazino[2,1-b][1,3]oxazepine-10-carboxamide], in that order: 4680 nM and 14%.
Turning to `O=C(NCc1cccc(C(F)(F)F)c1F)c1cn2c(c(O)c1=O)C(=O)N1[C@H]3CC[C@H](C3)[C@@H]1C2` [Compound 74, (1R,4S,12aR)-N-(2-fluoro-3-(trifluoromethyl)benzyl)-7-hydroxy-6,8-dioxo-1,2,3,4,6,8,12,12a-octahydro-1,4-methanodipyrido[1,2-a:1′,2′-d]pyrazine-9-carboxamide], the CC50 at 5 days in series [1] (CC50 nM in MT-4) worked out at 4340 nM.
On the same count and under the same terms, for `O=C(NCc1ncc(F)cc1F)c1cn2c(c(O)c1=O)C(=O)N1[C@H]3CC[C@H](C3)[C@@H]1C2` [Compound 76, (1R,4S,12aR)-N-((3,5-difluoropyridin-2-yl)methyl)-7-hydroxy-6,8-dioxo-1,2,3,4,6,8,12,12a-octahydro-1,4-methanodipyrido[1,2-a:1′,2′-d]pyrazine-9-carboxamide] the value was 34600 nM; for `C[C@@H](NC(=O)c1cn2c(c(O)c1=O)C(=O)N1[C@@H]3CC[C@H](C3)O[C@@H]1C2)c1c(F)cc(F)cc1F` [Compound 78, (2R,13aR)-8-hydroxy-7,9-dioxo-N—((R)-1-(2,4,6-trifluorophenyl)ethyl)-2,3,4,5,7,9,13,13a-octahydro-2,5-methanopyrido[1′,2′:4,5]pyrazino[2,1-b][1,3]oxazepine-10-carboxamide], 3200 nM; for `O=C(NCc1ccccc1)c1cn2c(c(O)c1=O)C(=O)N1[C@H]3CC[C@H](C3)[C@@H]1C2` [Compound 94, (1R,4S,12aR)-N-benzyl-7-hydroxy-6,8-dioxo-1,2,3,4,6,8,12,12a-octahydro-1,4-methanodipyrido[1,2-a:1′,2′-d]pyrazine-9-carboxamide], 51200 nM.
